Tests used:
Assay in all cases: Test B preemergence/postemergence greenhouse plant response rating 0 to 10
[1] = system: crabgrass; format: in vivo, Digitaria spp.; details: for Plant response rating, Crabgrass: 0 to 10 scale
In short: (§1)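 Test chemicals, dissolved in a non-phytotoxic solvent, were applied to soil at planting and, at the same time, over foliage of seedlings at the one to four leaf stage.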

[2] = system: wild oat; format: in vivo, Avena fatua; details: for Plant response rating, Wild oat: 0 to 10 scale
In short: as §1

[3] = system: rice; format: in vivo, Oryza sativa; details: for Plant response rating, Rice: 0 to 10 scale
In short: as §1

[4] = system: cocklebur; format: in vivo, Xanthium pensylvanicum; details: for Plant response rating, Cocklebur: 0 to 10 scale
In short: as §1

[5] = system: wheat; format: in vivo, Triticum aestivum; details: for Plant response rating, Wheat: 0 to 10 scale
In short: as §1

[6] = system: wild buckwheat; format: in vivo, Polygonum convolvulus; details: for Plant response rating, Wild buckwheat: 0 to 10 scale
In short: as §1

[7] = system: barley; format: in vivo, Hordeum vulgare; details: for Plant response rating, Barley: 0 to 10 scale
In short: as §1

[8] = system: barnyardgrass; format: in vivo, Echinochloa crus-galli; details: for Plant response rating, Barnyardgrass: 0 to 10 scale
In short: as §1

[9] = system: sugar beet; format: in vivo, Beta vulgaris; details: for Plant response rating, Sugar beet: 0 to 10 scale
In short: as §1

[10] = system: blackgrass; format: in vivo, Alopecurus myosuroides; details: for Plant response rating, Blackgrass: 0 to 10 scale
In short: as §1

[11] = system: rape; format: in vivo, Brassica napus; details: for Plant response rating, Rape: 0 to 10 scale
In short: as §1

[12] = system: velvetleaf; format: in vivo, Abutilon theophrasti; details: for Plant response rating, Velvetleaf: 0 to 10 scale
In short: as §1

[13] = system: soybean; format: in vivo, Glycine max; details: for Plant response rating, Soybean: 0 to 10 scale
In short: as §1

[14] = system: cheatgrass; format: in vivo, Bromus secalinus; details: for Plant response rating, Cheatgrass: 0 to 10 scale
In short: as §1

[15] = system: chickweed; format: in vivo, Stellaria media; details: for Plant response rating, Chickweed: 0 to 10 scale
In short: as §1

[16] = system: corn; format: in vivo, Zea mays; details: for Plant response rating, Corn: 0 to 10 scale
In short: as §1

[17] = system: cotton; format: in vivo, Gossypium hirsutum; details: for Plant response rating, Cotton: 0 to 10 scale
In short: as §1

[18] = system: bedstraw; format: in vivo, Galium aparine; details: for Plant response rating, Bedstraw: 0 to 10 scale
In short: as §1

[19] = system: morningglory; format: in vivo, Ipomoea hederacea; details: for Plant response rating, Morningglory: 0 to 10 scale
In short: as §1

[20] = system: sorghum; format: in vivo, Sorghum bicolor; details: for Plant response rating, Sorghum: 0 to 10 scale
In short: as §1

[21] = system: lambsquarters; format: in vivo, Chenopodium album; details: for Plant response rating, Lambsquarter: 0 to 10 scale
In short: as §1

[22] = system: giant foxtail; format: in vivo, Setaria faberii; details: for Plant response rating, Giant foxtail: 0 to 10 scale
In short: as §1

[23] = system: purple nutsedge; format: in vivo, Cyperus rotundus; details: for Plant response rating, Nutsedge: 0 to 10 scale
In short: as §1

O=C1COc2cc(F)c(-c3nn4c(c3Br)CCCC4)cc2N1 [Compound 80]
7: Plant response rating (0 to 10 scale), Wild oat ([2]; PREEMERGENCE, Rate 200 g/ha) | Plant response rating, Chickweed ([15]; Rate 200 g/ha, POSTEMERGENCE) | Plant response rating, Giant foxtail ([22]; Rate 200 g/ha, POSTEMERGENCE)
5: Plant response rating, Wild oat ([2]; Rate 200 g/ha, POSTEMERGENCE) | Plant response rating, Cheatgrass ([14]; POSTEMERGENCE, Rate 50 g/ha) | Plant response rating, Corn ([16]; Rate 200 g/ha, POSTEMERGENCE) | Plant response rating, Morningglory ([19]; PREEMERGENCE, Rate 50 g/ha)
3: Plant response rating (0 to 10 scale), Crabgrass ([1]; PREEMERGENCE, Rate 200 g/ha) | Plant response rating, Wild buckwheat ([6]; PREEMERGENCE, Rate 50 g/ha) | Plant response rating (0 to 10 scale), Wild buckwheat ([6]; PREEMERGENCE, Rate 200 g/ha) | Plant response rating, Barley ([7]; POSTEMERGENCE, Rate 50 g/ha) | Plant response rating, Blackgrass ([10]; POSTEMERGENCE, Rate 50 g/ha) | Plant response rating (0 to 10 scale), Blackgrass ([10]; PREEMERGENCE, Rate 200 g/ha) | Plant response rating (0 to 10 scale), Cheatgrass ([14]; PREEMERGENCE, Rate 200 g/ha) | Plant response rating (0 to 10 scale), Chickweed ([15]; PREEMERGENCE, Rate 200 g/ha)
2: Plant response rating, Wild oat ([2]; PREEMERGENCE, Rate 50 g/ha) | Plant response rating, Rice ([3]; PREEMERGENCE, Rate 50 g/ha) | Plant response rating (0 to 10 scale), Wheat ([5]; PREEMERGENCE, Rate 200 g/ha) | Plant response rating, Cheatgrass ([14]; PREEMERGENCE, Rate 50 g/ha) | Plant response rating (0 to 10 scale), Bedstraw ([18]; PREEMERGENCE, Rate 200 g/ha) | Plant response rating (0 to 10 scale), Giant foxtail ([22]; PREEMERGENCE, Rate 200 g/ha) | Plant response rating, Nutsedge ([23]; POSTEMERGENCE, Rate 50 g/ha)
9: Plant response rating, Cocklebur ([4]; POSTEMERGENCE, Rate 50 g/ha) | Plant response rating (0 to 10 scale), Sugar beet ([9]; PREEMERGENCE, Rate 200 g/ha) | Plant response rating, Velvetleaf ([12]; POSTEMERGENCE, Rate 50 g/ha) | Plant response rating, Velvetleaf ([12]; PREEMERGENCE, Rate 50 g/ha) | Plant response rating, Soybean ([13]; Rate 200 g/ha, POSTEMERGENCE)
6: Plant response rating, Crabgrass ([1]; Rate 200 g/ha, POSTEMERGENCE) | Plant response rating, Rice ([3]; POSTEMERGENCE, Rate 50 g/ha) | Plant response rating, Barnyardgrass ([8]; POSTEMERGENCE, Rate 50 g/ha) | Plant response rating (0 to 10 scale), Barnyardgrass ([8]; PREEMERGENCE, Rate 200 g/ha) | Plant response rating, Blackgrass ([10]; Rate 200 g/ha, POSTEMERGENCE) | Plant response rating, Cheatgrass ([14]; Rate 200 g/ha, POSTEMERGENCE) | Plant response rating, Sorghum ([20]; Rate 200 g/ha, POSTEMERGENCE)
0: Plant response rating, Crabgrass ([1]; PREEMERGENCE, Rate 50 g/ha) | Plant response rating, Cocklebur ([4]; PREEMERGENCE, Rate 50 g/ha) | Plant response rating (0 to 10 scale), Cocklebur ([4]; PREEMERGENCE, Rate 200 g/ha) | Plant response rating, Wheat ([5]; PREEMERGENCE, Rate 50 g/ha) | Plant response rating, Barley ([7]; PREEMERGENCE, Rate 50 g/ha) | Plant response rating (0 to 10 scale), Barley ([7]; PREEMERGENCE, Rate 200 g/ha) | Plant response rating, Barnyardgrass ([8]; PREEMERGENCE, Rate 50 g/ha) | Plant response rating, Blackgrass ([10]; PREEMERGENCE, Rate 50 g/ha) | Plant response rating, Soybean ([13]; PREEMERGENCE, Rate 50 g/ha) | Plant response rating (0 to 10 scale), Soybean ([13]; PREEMERGENCE, Rate 200 g/ha) | Plant response rating, Chickweed ([15]; PREEMERGENCE, Rate 50 g/ha) | Plant response rating, Corn ([16]; PREEMERGENCE, Rate 50 g/ha) | Plant response rating (0 to 10 scale), Corn ([16]; PREEMERGENCE, Rate 200 g/ha) | Plant response rating, Cotton ([17]; PREEMERGENCE, Rate 50 g/ha) | Plant response rating (0 to 10 scale), Cotton ([17]; PREEMERGENCE, Rate 200 g/ha) | Plant response rating, Bedstraw ([18]; PREEMERGENCE, Rate 50 g/ha) | Plant response rating, Sorghum ([20]; PREEMERGENCE, Rate 50 g/ha) | Plant response rating (0 to 10 scale), Sorghum ([20]; PREEMERGENCE, Rate 200 g/ha) | Plant response rating, Giant foxtail ([22]; PREEMERGENCE, Rate 50 g/ha) | Plant response rating, Nutsedge ([23]; PREEMERGENCE, Rate 50 g/ha) | Plant response rating (0 to 10 scale), Nutsedge ([23]; PREEMERGENCE, Rate 200 g/ha)
10: Plant response rating, Cocklebur ([4]; Rate 200 g/ha, POSTEMERGENCE) | Plant response rating, Wild buckwheat ([6]; POSTEMERGENCE, Rate 50 g/ha) | Plant response rating, Wild buckwheat ([6]; Rate 200 g/ha, POSTEMERGENCE) | Plant response rating, Sugar beet ([9]; POSTEMERGENCE, Rate 50 g/ha) | Plant response rating, Sugar beet ([9]; Rate 200 g/ha, POSTEMERGENCE) | Plant response rating, Rape ([11]; POSTEMERGENCE, Rate 50 g/ha) | Plant response rating (0 to 10 scale), Rape ([11]; PREEMERGENCE, Rate 200 g/ha) | Plant response rating, Rape ([11]; Rate 200 g/ha, POSTEMERGENCE) | Plant response rating (0 to 10 scale), Velvetleaf ([12]; PREEMERGENCE, Rate 200 g/ha) | Plant response rating, Velvetleaf ([12]; Rate 200 g/ha, POSTEMERGENCE) | Plant response rating, Cotton ([17]; POSTEMERGENCE, Rate 50 g/ha) | Plant response rating, Cotton ([17]; Rate 200 g/ha, POSTEMERGENCE) | Plant response rating, Bedstraw ([18]; Rate 200 g/ha, POSTEMERGENCE) | Plant response rating, Morningglory ([19]; POSTEMERGENCE, Rate 50 g/ha) | Plant response rating (0 to 10 scale), Morningglory ([19]; PREEMERGENCE, Rate 200 g/ha) | Plant response rating, Morningglory ([19]; Rate 200 g/ha, POSTEMERGENCE) | Plant response rating, Lambsquarter ([21]; POSTEMERGENCE, Rate 50 g/ha) | Plant response rating, Lambsquarter ([21]; PREEMERGENCE, Rate 50 g/ha) | Plant response rating (0 to 10 scale), Lambsquarter ([21]; PREEMERGENCE, Rate 200 g/ha) | Plant response rating, Lambsquarter ([21]; Rate 200 g/ha, POSTEMERGENCE)
4: Plant response rating, Crabgrass ([1]; POSTEMERGENCE, Rate 50 g/ha) | Plant response rating, Wild oat ([2]; POSTEMERGENCE, Rate 50 g/ha) | Plant response rating (0 to 10 scale), Rice ([3]; PREEMERGENCE, Rate 200 g/ha) | Plant response rating, Wheat ([5]; POSTEMERGENCE, Rate 50 g/ha) | Plant response rating, Wheat ([5]; Rate 200 g/ha, POSTEMERGENCE) | Plant response rating, Barley ([7]; Rate 200 g/ha, POSTEMERGENCE) | Plant response rating, Rape ([11]; PREEMERGENCE, Rate 50 g/ha) | Plant response rating, Chickweed ([15]; POSTEMERGENCE, Rate 50 g/ha) | Plant response rating, Corn ([16]; POSTEMERGENCE, Rate 50 g/ha) | Plant response rating, Sorghum ([20]; POSTEMERGENCE, Rate 50 g/ha) | Plant response rating, Giant foxtail ([22]; POSTEMERGENCE, Rate 50 g/ha) | Plant response rating, Nutsedge ([23]; Rate 200 g/ha, POSTEMERGENCE)
8: Plant response rating, Rice ([3]; Rate 200 g/ha, POSTEMERGENCE) | Plant response rating, Barnyardgrass ([8]; Rate 200 g/ha, POSTEMERGENCE) | Plant response rating, Sugar beet ([9]; PREEMERGENCE, Rate 50 g/ha) | Plant response rating, Soybean ([13]; POSTEMERGENCE, Rate 50 g/ha) | Plant response rating, Bedstraw ([18]; POSTEMERGENCE, Rate 50 g/ha)

— US6358885B1, “Substituted phenylheterocyclic herbicides” (Mississippi State University, priority 1992, dated 2002)
